Source: ChEMBL document CHEMBL1140156, “Polyoxygenated diterpenes from the sponge Phorbas sp” (2008)
Values after ≈ are worked out from the molar mass of the structure shown. Active and inactive are the calls of the source. The rule behind the calls is not given here.

Assays:
[1] = tested on: K562; assay: Cytotoxicity against human K562 cells; type: functional; details: for CC50: read-out: LC50 (the source's name)
[2] = Inhibition of isocitrate lyase

Compound	Activity [1]	Activity [2]	CC50 [1] [µg/mL]	IC50 [2] [µg/mL]
CC(C)=CCCC(C)/C=C/C=C(\C)[C@H]1CC[C@H](C(=O)O)CC1 (some centres undefined)	inactive	inactive		
CCCC(=O)O[C@@H]1[C@@H](OC(C)=O)[C@@H](O)C(C)=C[C@@H]2[C@H]3[C@@H](C(C)C)[C@@H](OC(=O)CC(C)C)[C@H](OC(=O)CCC)[C@@]3(C)[C@@H](OC(=O)CCC)C[C@]21C [GAGUNIN A]			18.1 (≈ 25.6 µM)	55 (≈ 77.8 µM)
CCCC(=O)O[C@@H]1[C@H](C(C)C)[C@@H]2[C@H]3C=C(C)[C@H](O)[C@H](OC(C)=O)[C@@H](OC(=O)CCC)[C@]3(C)C[C@H](OC(=O)CCC)[C@]2(C)[C@H]1OC(=O)CCC [GAGUNIN B]			3.5 (≈ 5.05 µM)	55 (≈ 79.4 µM)
CCCC(=O)O[C@@H]1[C@H](C(C)C)[C@@H]2[C@H]3C=C(C)[C@H](O)[C@H](OC(C)=O)[C@@H](OC(=O)CCC)[C@]3(C)C[C@H](OC(=O)CCC)[C@]2(C)[C@H]1OC(C)=O [GAGUNIN C]			0.37 (≈ 0.557 µM)	55 (≈ 82.7 µM)
CCCC(=O)O[C@H]1C[C@]2(C)[C@H]([C@H]1C(C)C)[C@H]1C=C(C)[C@H](O)[C@H](OC(C)=O)[C@@H](OC(=O)CCC)[C@]1(C)C[C@@H]2OC(=O)CCC [GAGUNIN D]			0.19 (≈ 0.313 µM)	55 (≈ 90.6 µM)
CCCC(=O)O[C@H]1C[C@]2(C)[C@H]([C@H]1C(C)C)[C@H]1C=C(C)[C@H](OC(C)=O)[C@H](O)[C@@H](OC(=O)CCC)[C@]1(C)C[C@@H]2OC(=O)CCC [GAGUNIN F]			0.25 (≈ 0.412 µM)	55 (≈ 90.6 µM)
CCCC(=O)O[C@H]1C[C@]2(C)[C@H](C=C(C)[C@H](OC(C)=O)[C@H](O)[C@H]2OC(=O)CCC)[C@H]2[C@@H](C(C)C)[C@@H](OC(C)=O)C[C@]21C [GAGUNIN G]			0.45 (≈ 0.778 µM)	55 (≈ 95 µM)
CCCC(=O)O[C@@H]1[C@H](C(C)C)[C@@H]2[C@H]3C=C(C)[C@H](O)[C@H](OC(C)=O)[C@@H](OC(=O)CCC)[C@]3(C)C[C@H](OC(=O)CC)[C@]2(C)[C@H]1OC(=O)CCC [GAGUNIN H]			10 (≈ 14.7 µM)	55 (≈ 81 µM)
CCCC(=O)O[C@@H]1[C@H](C(C)C)[C@@H]2[C@H]3C=C(C)[C@H](O)[C@H](OC(C)=O)[C@@H](OC(=O)CCC)[C@]3(C)C[C@H](OC(C)=O)[C@]2(C)[C@H]1OC(=O)CCC [GAGUNIN I]			11.5 (≈ 17.3 µM)	55 (≈ 82.7 µM)
CCCC(=O)O[C@@H]1[C@H](C(C)C)[C@@H]2[C@H]3C=C(C)[C@H](O)[C@H](OC(C)=O)[C@@H](OC(=O)CCC)[C@]3(C)C[C@H](OC(=O)CCC)[C@]2(C)[C@H]1OC(=O)CC [GAGUNIN J]			9.1 (≈ 13.4 µM)	55 (≈ 81 µM)
CCCCC(=O)O[C@@H]1[C@H](C(C)C)[C@@H]2[C@H]3C=C(C)[C@H](O)[C@H](OC(C)=O)[C@@H](OC(=O)CCC)[C@]3(C)C[C@H](OC(=O)CCC)[C@]2(C)[C@H]1OC(=O)CCC [GAGUNIN K]			17.5 (≈ 24.8 µM)	55 (≈ 77.8 µM)
CCCC(=O)O[C@H]1C[C@]2(C)[C@H]([C@H]1C(C)C)[C@H]1C=C(C)[C@H](O)[C@H](OC(C)=O)[C@@H](OC(=O)CCC)[C@]1(C)C[C@@H]2OC(C)=O [GAGUNIN L]			12.5 (≈ 21.6 µM)	55 (≈ 95 µM)
CCCC(=O)O[C@H]1C[C@]2(C)[C@H]([C@H]1C(C)C)[C@H]1C=C(C)[C@H](O)[C@H](OC(C)=O)[C@@H](OC(=O)CCC)[C@]1(C)C[C@@H]2OC(=O)CC(C)C [GAGUNIN M]			0.71 (≈ 1.14 µM)	55 (≈ 88.6 µM)
CCCC(=O)O[C@H]1C[C@]2(C)[C@H]([C@H]1C(C)C)[C@H]1C=C(C)[C@H](OC(C)=O)[C@H](O)[C@@H](OC(=O)CCC)[C@]1(C)C[C@@H]2OC(C)=O [GAGUNIN N]			> 50	55 (≈ 95 µM)
CCCC(=O)O[C@@H]1[C@H](C(C)C)[C@@H]2[C@H]3C=C(C)[C@H](OC(C)=O)[C@H](O)[C@@H](OC(=O)CCC)[C@]3(C)C[C@H](OC(=O)CCC)[C@]2(C)[C@H]1OC(=O)CCC [GAGUNIN O]			11.1 (≈ 16 µM)	55 (≈ 79.4 µM)
CCCC(=O)O[C@@H]1[C@H](C(C)C)[C@@H]2[C@H]3C=C(C)[C@H](O)[C@H](OC(C)=O)[C@@H](OC(C)=O)[C@]3(C)C[C@H](OC(=O)CCC)[C@]2(C)[C@H]1OC(=O)CCC [GAGUNIN P]			8.5 (≈ 12.8 µM)	55 (≈ 82.7 µM)
CCCC(=O)O[C@@H]1[C@H](C(C)C)[C@@H]2[C@H]3C=C(C)[C@H](O)[C@H](OC(=O)CC)[C@@H](OC(=O)CCC)[C@]3(C)C[C@H](OC(=O)CCC)[C@]2(C)[C@H]1OC(=O)CCC [GAGUNIN Q]			> 50	55 (≈ 77.8 µM)
